Laboratory results from US20110319392A1, “Thiazole Sulfonamide And Oxazole Sulfonamide Kinase Inhibitors” (priority 2009, published 2011).
Where a name gives a salt, the structure may show the parent alone. Marks after values point to notes of the source that are not given here.

What was measured:
A375P F11s = test: In vivo tumor growth, A375P F11s subcutaneous tumors; parameters: species or system athymic mice; key: −: no response; +: growth delay (1-2×doubling); ++: growth delay (>2×doubling); +++: stable disease; ++++: partial regression; +++++: complete regression; conditions: oral, 14-day period
Experimental: (§1) A375P F11s and Colo205 cells were cultured in RPMI 1640 medium supplemented with 10% fetal bovine serum and 1% sodium pyruvate or 10% fetal bovine serum and without sodium pyruvate, respectively. Tumor cells (1.75×10^6 A375P F11 s or 5×10^6 Colo205) were implanted subcutaneously into the right flank of athymic mice on Day 1. To facilitate their growth, A375P F11s cells were suspended in Matrigel diluted 1:1 in phosphate-buffered saline before implantation. When tumors had reached approximately 200 mm^3 in volume (Day 19-22), tumor-bearing mice were randomized into study groups (n=7 or 8). Animals were dosed orally once or twice daily for a 14-day period. The compound of Example 19b was dosed in a 0.5% HPMC/0.2% Tween 80 pH 7-8 vehicle. Tumor growth was measured twice a week using calipers for the duration of the study. Tumor volumes were calculated as a product of (length×width×width)/2 and median values were used to compare groups. Complete regressions (CR) were defined as three consecutive tumor measurements of ≦13.5 mm^3. Partial regressions were defined as three consecutive measurements of ≦50% of starting tumor volume. Tumor growth delay was defined as the difference in time taken for treated and control groups to reach 1000 mm^3 (T-C1000).

Colo205 = test: In vivo tumor growth, Colo205 subcutaneous tumors; parameters: species or system athymic mice; key: −: no response; +: growth delay (1-2×doubling); ++: growth delay (>2×doubling); +++: stable disease; ++++: partial regression; +++++: complete regression; conditions: oral, 14-day period
Experimental: as §1

SMILES: COc1cc(N2CCN(CCS(C)(=O)=O)CC2)c(C)cc1Nc1nccc(-c2sc(C(C)C)nc2-c2cccc(NS(=O)(=O)c3c(F)cccc3F)c2)n1 [Example 19b, 2,6-Difluoro-N-(3-(2-(1-methylethyl)-5-(24(5-methyl-2-(methyloxy)-4-(4-[2-(methylsulfonyl)ethyl]-1-piperazinyl}phenyl)amino]-4-pyrimidinyl}-1,3-thiazol-4-yl)phenyl]benzenesulfonamide dihydrochloride]
- Response (A375P F11s; 1 mg/kg bid): −
- Response (A375P F11s; 3 mg/kg bid): +
- Response (A375P F11s; 10 mg/kg bid): ++
- Response (A375P F11s; 30 mg/kg bid): ++++
- Response (A375P F11s; 30 mg/kg qd, during dosing): +++ (during dosing)*
- Response (Colo205; 30 mg/kg bid): ++
- Response (Colo205; 30 mg/kg qd): −
- Response (Colo205; 100 mg/kg bid): ++++
- Response (Colo205; 300 mg/kg qd): ++++
